# Laboratory results taken from patent US10040781B2, “Tank-binding kinase inhibitor compounds” (Gilead Sciences, Inc., priority 2014, dated 2018).
# Legend:
# TBK1 = TBK1 (Homo sapiens (Human), UniProt Q9UHD2); test: TBK1 TR-FRET enzymatic assay;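 note: phosphorylation of a biotinylated Ser/Thr peptide by purified full-length recombinant TBK1, read by TR-FRET after 240 min at 25 °C, IC50 is the geometric mean of at least four runs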
# IKKε = IKKε (Homo sapiens (Human), UniProt Q14164); test: IKKε TR-FRET enzymatic assay; assay type: biochemical; conditions: read-out: IKKe IC50
# hJAK2 = hJAK2 (Homo sapiens (Human), UniProt O60674); test: hJAK2 LANCE TR-FRET enzymatic assay; assay type: biochemical; conditions: read-out: JAK2 IC50
# Sequence of hJAK2 (O60674 whole entry): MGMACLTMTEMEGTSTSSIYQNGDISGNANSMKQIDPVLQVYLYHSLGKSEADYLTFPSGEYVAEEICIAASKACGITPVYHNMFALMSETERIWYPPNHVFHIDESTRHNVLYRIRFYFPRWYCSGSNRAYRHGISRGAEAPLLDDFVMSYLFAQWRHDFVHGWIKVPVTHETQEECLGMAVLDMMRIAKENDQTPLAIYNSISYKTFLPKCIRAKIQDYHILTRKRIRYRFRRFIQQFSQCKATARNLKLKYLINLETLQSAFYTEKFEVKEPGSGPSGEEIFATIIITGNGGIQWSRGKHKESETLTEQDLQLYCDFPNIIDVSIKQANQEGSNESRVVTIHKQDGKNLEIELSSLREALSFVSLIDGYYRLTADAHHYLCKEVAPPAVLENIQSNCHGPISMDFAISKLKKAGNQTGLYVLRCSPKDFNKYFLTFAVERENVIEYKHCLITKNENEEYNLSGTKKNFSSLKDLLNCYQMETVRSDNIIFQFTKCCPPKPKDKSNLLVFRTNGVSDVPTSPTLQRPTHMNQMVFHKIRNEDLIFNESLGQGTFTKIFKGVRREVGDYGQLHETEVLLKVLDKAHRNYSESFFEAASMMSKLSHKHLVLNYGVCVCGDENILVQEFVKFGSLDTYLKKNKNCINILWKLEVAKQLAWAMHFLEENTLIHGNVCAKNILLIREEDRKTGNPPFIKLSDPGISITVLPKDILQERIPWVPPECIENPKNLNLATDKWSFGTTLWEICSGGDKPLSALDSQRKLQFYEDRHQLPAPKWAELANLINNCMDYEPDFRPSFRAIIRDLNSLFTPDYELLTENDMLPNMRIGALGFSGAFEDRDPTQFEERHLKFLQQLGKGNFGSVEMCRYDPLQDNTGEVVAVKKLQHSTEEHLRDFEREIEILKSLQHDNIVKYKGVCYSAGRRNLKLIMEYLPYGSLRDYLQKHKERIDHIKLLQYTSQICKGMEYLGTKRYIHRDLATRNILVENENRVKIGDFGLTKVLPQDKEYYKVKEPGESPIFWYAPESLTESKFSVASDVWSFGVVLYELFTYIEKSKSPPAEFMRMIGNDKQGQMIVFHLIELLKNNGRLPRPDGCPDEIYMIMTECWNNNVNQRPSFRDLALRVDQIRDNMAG
# Sequence of TBK1 (Q9UHD2 whole entry): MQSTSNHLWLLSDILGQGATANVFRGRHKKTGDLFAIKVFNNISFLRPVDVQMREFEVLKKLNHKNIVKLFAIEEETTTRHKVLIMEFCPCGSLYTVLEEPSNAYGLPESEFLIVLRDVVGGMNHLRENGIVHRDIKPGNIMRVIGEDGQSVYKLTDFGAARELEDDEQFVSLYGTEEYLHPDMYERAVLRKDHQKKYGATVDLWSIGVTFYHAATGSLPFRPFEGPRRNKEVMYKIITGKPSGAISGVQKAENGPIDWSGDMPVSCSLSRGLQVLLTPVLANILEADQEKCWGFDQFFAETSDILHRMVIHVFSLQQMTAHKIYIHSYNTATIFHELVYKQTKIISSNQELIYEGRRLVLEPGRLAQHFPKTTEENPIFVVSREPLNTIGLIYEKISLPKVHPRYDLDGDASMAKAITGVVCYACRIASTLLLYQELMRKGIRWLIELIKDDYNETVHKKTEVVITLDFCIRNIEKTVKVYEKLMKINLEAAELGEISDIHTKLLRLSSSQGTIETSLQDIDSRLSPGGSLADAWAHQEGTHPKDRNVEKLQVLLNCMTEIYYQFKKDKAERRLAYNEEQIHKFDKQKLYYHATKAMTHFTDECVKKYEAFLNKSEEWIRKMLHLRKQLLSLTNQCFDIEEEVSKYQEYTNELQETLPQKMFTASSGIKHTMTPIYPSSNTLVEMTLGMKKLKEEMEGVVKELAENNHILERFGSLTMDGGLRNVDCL
# Sequence of IKKε (Q14164 whole entry): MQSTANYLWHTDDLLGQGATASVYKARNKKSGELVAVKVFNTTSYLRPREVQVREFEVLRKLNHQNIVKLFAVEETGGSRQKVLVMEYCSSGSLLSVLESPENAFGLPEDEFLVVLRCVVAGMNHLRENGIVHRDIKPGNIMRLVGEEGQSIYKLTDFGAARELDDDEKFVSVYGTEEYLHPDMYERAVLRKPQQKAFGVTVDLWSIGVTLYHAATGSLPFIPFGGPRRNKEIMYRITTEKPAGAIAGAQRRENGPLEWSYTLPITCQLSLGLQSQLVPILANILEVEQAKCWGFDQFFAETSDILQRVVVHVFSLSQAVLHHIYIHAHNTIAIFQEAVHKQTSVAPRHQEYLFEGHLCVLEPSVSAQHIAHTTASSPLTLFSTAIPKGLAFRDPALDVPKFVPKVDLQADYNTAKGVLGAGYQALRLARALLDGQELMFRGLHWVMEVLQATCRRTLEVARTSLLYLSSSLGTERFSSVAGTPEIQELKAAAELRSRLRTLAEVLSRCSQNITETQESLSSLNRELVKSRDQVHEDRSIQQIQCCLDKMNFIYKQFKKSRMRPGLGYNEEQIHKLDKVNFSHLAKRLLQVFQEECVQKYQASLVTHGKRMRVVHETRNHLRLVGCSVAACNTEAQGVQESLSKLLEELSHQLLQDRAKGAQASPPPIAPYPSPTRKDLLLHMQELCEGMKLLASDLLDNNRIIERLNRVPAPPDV
IC50 (TBK1),IC50 (IKKε),IC50 (hJAK2),SMILES
3 nM,3 nM,158 nM,"C[C@H]1CN(c2ccc(Nc3ncnc(-c4ccc(O[C@H]5CCN(C(=O)c6cnn[nH]6)C[C@H]5F)c(C#N)c4)n3)cc2)CCN1C1COC1 [Example 263, 2-(((3R,4S)-3-fluoro-1-(1H-1,2,3-triazole-5-carbonyl)piperidin-4-yl)oxy)-5-(4-((4-((S)-3-methyl-4-(oxetan-3-yl)piperazin-1-yl)phenyl)amino)-1,3,5-triazin-2-yl)benzonitrile]"
2 nM,1 nM,296 nM,"C[C@H](O)C(=O)N1CC[C@H](Oc2ccc(-c3ncnc(Nc4ccc(N5CCN(C6COC6)[C@@H](C)C5)cc4)n3)cc2C#N)[C@H](F)C1 [Example 264, 2-(((3R,4S)-3-fluoro-1-((S)-2-hydroxypropanoyl)piperidin-4-yl)oxy)-5-(4-((4-((S)-3-methyl-4-(oxetan-3-yl)piperazin-1-yl)phenyl)amino)-1,3,5-triazin-2-yl)benzonitrile]"
5 nM,4 nM,426 nM,"C[C@H](O)C(=O)N1CC[C@H](Oc2ccc(-c3ncnc(Nc4ccc(N5C[C@@H](C)N(C6COC6)C[C@@H]5C)cc4)n3)cc2C#N)[C@H](F)C1 [Example 265, 5-(4-((4-((2S,5R)-2,5-dimethyl-4-(oxetan-3-yl)piperazin-1-yl)phenyl)amino)-1,3,5-triazin-2-yl)-2-(((3R,4S)-3-fluoro-1-((S)-2-hydroxypropanoyl)piperidin-4-yl)oxy)benzonitrile]"
82 nM,83 nM,387 nM,"Cc1ncc(C(=O)N2CC[C@H](Oc3ccc(-c4ncnc(Nc5ccc(N6CCN(C7COC7)CC6)cc5)n4)cc3C#N)[C@H](F)C2)n1C [Example 266, 2-(((3R,4S)-1-(1,2-dimethyl-1H-imidazole-5-carbonyl)-3-fluoropiperidin-4-yl)oxy)-5-(4-((4-(4-(oxetan-3-yl)piperazin-1-yl)phenyl)amino)-1,3,5-triazin-2-yl)benzonitrile]"
120 nM,264 nM,404 nM,"Cn1cncc1C(=O)N1CC[C@H](Oc2ccc(-c3ncnc(Nc4ccc(N5CCN(C6COC6)CC5)cc4)n3)cc2C#N)[C@H](F)C1 [Example 267, 2-(((3R,4S)-3-fluoro-1-(1-methyl-1H-imidazole-5-carbonyl)piperidin-4-yl)oxy)-5-(4-((4-(4-(oxetan-3-yl)piperazin-1-yl)phenyl)amino)-1,3,5-triazin-2-yl)benzonitrile]"
139 nM,285 nM,133 nM,"CS(=O)(=O)N1CC(Oc2ccc(-c3ncnc(Nc4ccc(N5CCN(C6COC6)CC5)cc4)n3)cc2C#N)C1 [Example 273, 2-((1-(methylsulfonyl)azetidin-3-yl)oxy)-5-(4-((4-(4-(oxetan-3-yl)piperazin-1-yl)phenyl)amino)-1,3,5-triazin-2-yl)benzonitrile]"
47 nM,≥ 1000 nM,≥ 1000 nM,"N#Cc1cc(-c2ncnc(Nc3ccc(N4CCN(C5COC5)CC4)cc3)n2)ccc1OC1CN(C(=O)CO)C1 [Example 274, 2-((1-(2-hydroxyacetyl)azetidin-3-yl)oxy)-5-(4-((4-(4-(oxetan-3-yl)piperazin-1-yl)phenyl)amino)-1,3,5-triazin-2-yl)benzonitrile]"
94 nM,237 nM,≥ 1000 nM,"CC(C)[C@H](Oc1ccc(-c2ncnc(Nc3ccc(N4CCN(C5COC5)CC4)cc3)n2)cc1C#N)C(N)=O [Example 286, (S)-2-(2-cyano-4-(4-((4-(4-(oxetan-3-yl)piperazin-1-yl)phenyl)amino)-1,3,5-triazin-2-yl)phenoxy)-3-methylbutanamide]"
3 nM,2 nM,316 nM,"N#Cc1cc(-c2ncnc(Nc3ccc(N4CCN(C5COC5)CC4)cc3)n2)ccc1O[C@H]1CCN(C(=O)C(F)F)C[C@H]1F [Example 288, 2-(((3R,4S)-1-(2,2-difluoroacetyl)-3-fluoropiperidin-4-yl)oxy)-5-(4-((4-(4-(oxetan-3-yl)piperazin-1-yl)phenyl)amino)-1,3,5-triazin-2-yl)benzonitrile]"
4 nM,5 nM,444 nM,"CC(=O)N1CC[C@H](Oc2ccc(-c3ncnc(Nc4ccc(N5CCN(C6COC6)CC5)cc4)n3)cc2C#N)[C@H](F)C1 [Example 289, 2-(((3R,4S)-1-acetyl-3-fluoropiperidin-4-yl)oxy)-5-(4-((4-(4-(oxetan-3-yl)piperazin-1-yl)phenyl)amino)-1,3,5-triazin-2-yl)benzonitrile]"

# The remaining lines, values behind:
SMILES,IC50 (TBK1),IC50 (IKKε),IC50 (hJAK2)
"N#Cc1cc(-c2ncnc(Nc3ccc(N4CCN(C5COC5)CC4)c(F)c3)n2)ccc1OC1CCS(=O)(=O)CC1 [Example 268, 2-((1,1-dioxidotetrahydro-2H-thiopyran-4-yl)oxy)-5-(4-((3-fluoro-4-(4-(oxetan-3-yl)piperazin-1-yl)phenyl)amino)-1,3,5-triazin-2-yl)benzonitrile]",12 nM,69 nM,527 nM
"COC1CN(c2ccc(-c3ncnc(Nc4ccc(N5CCN(C6COC6)CC5)cc4)n3)cc2C#N)C1 [Example 269, 2-(3-methoxyazetidin-1-yl)-5-(4-((4-(4-(oxetan-3-yl)piperazin-1-yl)phenyl)amino)-1,3,5-triazin-2-yl)benzonitrile]",13 nM,25 nM,219 nM
"N#Cc1cc(-c2ncnc(Nc3ccc(N4CCN(C5COC5)CC4)cc3)n2)cc(F)c1OC1CCS(=O)(=O)CC1 [Example 271, 2-((1,1-dioxidotetrahydro-2H-thiopyran-4-yl)oxy)-3-fluoro-5-(4-((4-(4-(oxetan-3-yl)piperazin-1-yl)phenyl)amino)-1,3,5-triazin-2-yl)benzonitrile]",18 nM,110 nM,≥ 1000 nM
"CS(=O)(=O)C1CN(c2ccc(-c3ncnc(Nc4ccc(N5CCN(C6COC6)CC5)cc4)n3)cc2C#N)C1 [Example 272, 2-(3-(methylsulfonyl)azetidin-1-yl)-5-(4-((4-(4-(oxetan-3-yl)piperazin-1-yl)phenyl)amino)-1,3,5-triazin-2-yl)benzonitrile]",28 nM,53 nM,68 nM
"N#Cc1cc(-c2ncnc(Nc3ccc4oc(=O)[nH]c4c3)n2)ccc1OC1CCOCC1 [Example 277, 5-(4-((2-oxo-2,3-dihydrobenzo[d]oxazol-5-yl)amino)-1,3,5-triazin-2-yl)-2-((tetrahydro-2H-pyran-4-yl)oxy)benzonitrile]",18 nM,47 nM,≥ 1000 nM
"CC1(C)C(=O)Nc2ccc(Nc3ncnc(-c4ccc(OC5CCOCC5)c(C#N)c4)n3)cc21 [Example 278, 5-(4-((3,3-dimethyl-2-oxoindolin-5-yl)amino)-1,3,5-triazin-2-yl)-2-((tetrahydro-2H-pyran-4-yl)oxy)benzonitrile]",4 nM,9 nM,541 nM
"N#Cc1cc(-c2ncnc(Nc3ccc(N4CCN(C5COC5)CC4)cc3)n2)ccc1OC1CCC2(CC1)OCCO2 [Example 279, 2-(1,4-dioxaspiro[4.5]decan-8-yloxy)-5-(4-((4-(4-(oxetan-3-yl)piperazin-1-yl)phenyl)amino)-1,3,5-triazin-2-yl)benzonitrile]",27 nM,75 nM,≥ 1000 nM
"N#Cc1cc(-c2ncnc(Nc3ccc(N4CCN(C5COC5)CC4)cc3)n2)ccc1OCC1(F)COC1 [Example 280, 2-((3-fluorooxetan-3-yl)methoxy)-5-(4-((4-(4-(oxetan-3-yl)piperazin-1-yl)phenyl)amino)-1,3,5-triazin-2-yl)benzonitrile]",4 nM,10 nM,110 nM
"COc1cc(Nc2ncnc(-c3ccc(OC4CCN(C(=O)[C@H](C)O)CC4)c(C#N)c3)n2)ccc1N1CCN(C2COC2)CC1 [Example 281, (S)-2-((1-(2-hydroxypropanoyl)piperidin-4-yl)oxy)-5-(4-((3-methoxy-4-(4-(oxetan-3-yl)piperazin-1-yl)phenyl)amino)-1,3,5-triazin-2-yl)benzonitrile]",2 nM,8 nM,185 nM
"C[C@H](Oc1ccc(-c2ncnc(Nc3ccc(N4CCN(C5COC5)CC4)cc3)n2)cc1C#N)C1CCOCC1 [Example 282, (S)-5-(4-((4-(4-(oxetan-3-yl)piperazin-1-yl)phenyl)amino)-1,3,5-triazin-2-yl)-2-(1-(tetrahydro-2H-pyran-4-yl)ethoxy)benzonitrile]",14 nM,16 nM,219 nM
"C[C@@H](Oc1ccc(-c2ncnc(Nc3ccc(N4CCN(C5COC5)CC4)cc3)n2)cc1C#N)C1CCOCC1 [Example 283, (R)-5-(4-((4-(4-(oxetan-3-yl)piperazin-1-yl)phenyl)amino)-1,3,5-triazin-2-yl)-2-(1-(tetrahydro-2H-pyran-4-yl)ethoxy)benzonitrile]",22 nM,115 nM,450 nM
"N#Cc1cc(-c2ncnc(Nc3ccc(N4CCN(C5COC5)CC4)cc3)n2)ccc1OCC1CCOCC1 [Example 285, 5-(4-((4-(4-(oxetan-3-yl)piperazin-1-yl)phenyl)amino)-1,3,5-triazin-2-yl)-2-((tetrahydro-2H-pyran-4-yl)methoxy)benzonitrile]",4 nM,8 nM,313 nM
"N#Cc1cc(-c2ncnc(Nc3ccc(N4CC(O)C4)nc3)n2)ccc1OC1CCOCC1 [Example 287, 5-(4-((6-(3-hydroxyazetidin-1-yl)pyridin-3-yl)amino)-1,3,5-triazin-2-yl)-2-((tetrahydro-2H-pyran-4-yl)oxy)benzonitrile]",15 nM,20 nM,≥ 1000 nM
"N#Cc1cc(-c2ncnc(Nc3ccc(N4CCN(C5COC5)CC4)cc3)n2)ccc1O[C@H]1CCCC[C@H]1N [Example 291, 2-(((1S,2R)-2-aminocyclohexyl)oxy)-5-(4-((4-(4-(oxetan-3-yl)piperazin-1-yl)phenyl)amino)-1,3,5-triazin-2-yl)benzonitrile]",266 nM,603 nM,474 nM
